# Test results from PubChem BioAssay (NCI).
#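 Five compound concentrations were applied to cells in 96-well plates for 48 hours; endpoints were derived by simple linear interpolation of the resulting dose-response curve. GI50 marks 50% less growth. TGI: total growth inhibition.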
# Key:
# Assay in all cases: NCI tumour cell line growth inhibition, 48 h
# TK-10 renal = system: TK-10 renal
# DU-145 prostate = system: DU-145 prostate
# UACC-257 melanoma = system: UACC-257 melanoma
# PC-3 prostate = system: PC-3 prostate
# K-562 leukemia = system: K-562 leukemia
# HS 578T breast = system: HS 578T breast
# MDA-MB-435 = system: MDA-MB-435
# NCI/ADR-RES ovarian = system: NCI/ADR-RES ovarian
# RPMI-8226 leukemia = system: RPMI-8226 leukemia
# HOP-92 NSCLC = system: HOP-92 NSCLC
# NCI-H522 lung = system: NCI-H522 lung
# T-47D breast = system: T-47D breast
# NCI-H226 lung = system: NCI-H226 lung
# NCI-H23 lung = system: NCI-H23 lung
# OVCAR-5 ovarian = system: OVCAR-5 ovarian
# SNB-19 CNS = system: SNB-19 CNS
# MDA-MB-468 breast = system: MDA-MB-468 breast
# OVCAR-3 ovarian = system: OVCAR-3 ovarian
# HL-60(TB) leukemia = system: HL-60(TB) leukemia
# UACC-62 melanoma = system: UACC-62 melanoma
# MOLT-4 leukemia = system: MOLT-4 leukemia
# ACHN renal = system: ACHN renal
# MDA-MB-231 breast = system: MDA-MB-231 breast
# SK-MEL-2 melanoma = system: SK-MEL-2 melanoma
# SF-268 CNS = system: SF-268 CNS
# CCRF-CEM leukemia = system: CCRF-CEM leukemia
# SN12C renal = system: SN12C renal
# LOX IMVI melanoma = system: LOX IMVI melanoma
# OVCAR-4 ovarian = system: OVCAR-4 ovarian
# HCT-116 colon = system: HCT-116 colon
# 786-0 renal = system: 786-0 renal
# SK-MEL-28 melanoma = system: SK-MEL-28 melanoma
# SNB-75 CNS = system: SNB-75 CNS
# RXF 393 renal = system: RXF 393 renal
# SK-MEL-5 melanoma = system: SK-MEL-5 melanoma
# SF-295 CNS = system: SF-295 CNS
# OVCAR-8 ovarian = system: OVCAR-8 ovarian
# SF-539 CNS = system: SF-539 CNS
# IGROV1 ovarian = system: IGROV1 ovarian
# SW-620 colon = system: SW-620 colon
# CAKI-1 renal = system: CAKI-1 renal
# BT-549 breast = system: BT-549 breast
# EKVX NSCLC = system: EKVX NSCLC
# HOP-62 NSCLC = system: HOP-62 NSCLC
# HCC-2998 colon = system: HCC-2998 colon
# NCI-H460 lung = system: NCI-H460 lung
# SK-OV-3 ovarian = system: SK-OV-3 ovarian
# KM12 colon = system: KM12 colon
# A549 NSCLC = system: A549 NSCLC
# MALME-3M melanoma = system: MALME-3M melanoma
# M14 melanoma = system: M14 melanoma
# A498 renal = system: A498 renal
# U251 CNS = system: U251 CNS
# MCF7 breast = system: MCF7 breast
# HCT-15 colon = system: HCT-15 colon
# UO-31 renal = system: UO-31 renal
# COLO 205 colon = system: COLO 205 colon
# HT29 colon = system: HT29 colon
smiles,measurement,setting,value
CCN(CC)CCOc1ccc(Nc2ncc3cc(-c4ccc(O)c(C#N)c4)c(=O)n(C)c3n2)cc1,GI50,TK-10 renal,> 100 µM
same,TGI,TK-10 renal,> 100 µM
same,GI50,DU-145 prostate,> 100 µM
same,TGI,DU-145 prostate,> 100 µM
same,GI50,UACC-257 melanoma,18.8 µM
same,TGI,UACC-257 melanoma,37.9 µM
same,GI50,PC-3 prostate,> 100 µM
same,TGI,PC-3 prostate,> 100 µM
same,GI50,K-562 leukemia,5.45 µM
same,TGI,K-562 leukemia,> 100 µM
same,GI50,HS 578T breast,6.77 µM
same,TGI,HS 578T breast,30.8 µM
same,GI50,MDA-MB-435,18.4 µM
same,TGI,MDA-MB-435,36.5 µM
same,GI50,NCI/ADR-RES ovarian,> 100 µM
same,TGI,NCI/ADR-RES ovarian,> 100 µM
same,GI50,RPMI-8226 leukemia,26.7 µM
same,TGI,RPMI-8226 leukemia,> 100 µM
same,GI50,HOP-92 NSCLC,4.46 µM
same,TGI,HOP-92 NSCLC,22.8 µM
same,GI50,NCI-H522 lung,17.4 µM
same,TGI,NCI-H522 lung,35 µM
same,GI50,T-47D breast,15.6 µM
same,TGI,T-47D breast,38.9 µM
same,GI50,NCI-H226 lung,13 µM
same,TGI,NCI-H226 lung,53.4 µM
same,GI50,NCI-H23 lung,> 100 µM
same,TGI,NCI-H23 lung,> 100 µM
same,GI50,OVCAR-5 ovarian,> 100 µM
same,TGI,OVCAR-5 ovarian,> 100 µM
same,GI50,SNB-19 CNS,25.8 µM
same,TGI,SNB-19 CNS,57.3 µM
same,GI50,MDA-MB-468 breast,15.6 µM
same,TGI,MDA-MB-468 breast,30.2 µM
same,GI50,OVCAR-3 ovarian,> 100 µM
same,TGI,OVCAR-3 ovarian,> 100 µM
same,GI50,HL-60(TB) leukemia,> 100 µM
same,TGI,HL-60(TB) leukemia,> 100 µM
same,GI50,UACC-62 melanoma,15.4 µM
same,TGI,UACC-62 melanoma,29.3 µM
same,GI50,MOLT-4 leukemia,17.4 µM
same,TGI,MOLT-4 leukemia,66.4 µM
same,GI50,ACHN renal,49.3 µM
same,TGI,ACHN renal,> 100 µM
same,GI50,MDA-MB-231 breast,19.3 µM
same,TGI,MDA-MB-231 breast,> 100 µM
same,GI50,SK-MEL-2 melanoma,15.7 µM
same,TGI,SK-MEL-2 melanoma,31.9 µM
same,GI50,SF-268 CNS,24 µM
same,TGI,SF-268 CNS,> 100 µM
same,GI50,CCRF-CEM leukemia,16.1 µM
same,TGI,CCRF-CEM leukemia,53.5 µM
same,GI50,SN12C renal,62.3 µM
same,TGI,SN12C renal,> 100 µM
same,GI50,LOX IMVI melanoma,22.6 µM
same,TGI,LOX IMVI melanoma,> 100 µM
same,GI50,OVCAR-4 ovarian,> 100 µM
same,TGI,OVCAR-4 ovarian,> 100 µM
same,GI50,HCT-116 colon,30.7 µM
same,TGI,HCT-116 colon,> 100 µM
same,GI50,786-0 renal,15 µM
same,TGI,786-0 renal,29 µM
same,GI50,SK-MEL-28 melanoma,17.2 µM
same,TGI,SK-MEL-28 melanoma,31.5 µM
same,GI50,SNB-75 CNS,2.55 µM
same,TGI,SNB-75 CNS,> 100 µM
same,GI50,RXF 393 renal,3.28 µM
same,TGI,RXF 393 renal,14.1 µM
same,GI50,SK-MEL-5 melanoma,13.9 µM
same,TGI,SK-MEL-5 melanoma,27.2 µM
same,GI50,SF-295 CNS,> 100 µM
same,TGI,SF-295 CNS,> 100 µM
same,GI50,OVCAR-8 ovarian,> 100 µM
same,TGI,OVCAR-8 ovarian,> 100 µM
same,GI50,SF-539 CNS,17.8 µM
same,TGI,SF-539 CNS,64.3 µM
same,GI50,IGROV1 ovarian,68 µM
same,TGI,IGROV1 ovarian,> 100 µM
same,GI50,SW-620 colon,55.4 µM
same,TGI,SW-620 colon,> 100 µM
same,GI50,CAKI-1 renal,48 µM
same,TGI,CAKI-1 renal,> 100 µM
same,GI50,BT-549 breast,24.8 µM
same,TGI,BT-549 breast,59.3 µM
same,GI50,EKVX NSCLC,> 100 µM
same,TGI,EKVX NSCLC,> 100 µM
same,GI50,HOP-62 NSCLC,> 100 µM
same,TGI,HOP-62 NSCLC,> 100 µM
same,GI50,HCC-2998 colon,> 100 µM
same,TGI,HCC-2998 colon,> 100 µM
same,GI50,NCI-H460 lung,37.5 µM
same,TGI,NCI-H460 lung,> 100 µM
same,GI50,SK-OV-3 ovarian,> 100 µM
same,TGI,SK-OV-3 ovarian,> 100 µM
same,GI50,KM12 colon,28.3 µM
same,TGI,KM12 colon,> 100 µM
same,GI50,A549 NSCLC,> 100 µM
same,TGI,A549 NSCLC,> 100 µM
same,GI50,MALME-3M melanoma,15.1 µM
same,TGI,MALME-3M melanoma,28.5 µM
same,GI50,M14 melanoma,13.4 µM
same,TGI,M14 melanoma,27.1 µM
same,GI50,A498 renal,62.6 µM
same,TGI,A498 renal,> 100 µM
same,GI50,U251 CNS,18.6 µM
same,TGI,U251 CNS,35.6 µM
same,GI50,MCF7 breast,15.3 µM
same,TGI,MCF7 breast,32.9 µM
same,GI50,HCT-15 colon,> 100 µM
same,TGI,HCT-15 colon,> 100 µM
same,GI50,UO-31 renal,> 100 µM
same,TGI,UO-31 renal,> 100 µM
same,GI50,COLO 205 colon,25 µM
same,TGI,COLO 205 colon,> 100 µM
same,GI50,HT29 colon,9.92 µM
same,TGI,HT29 colon,41.3 µM
